For 99 molecules, melting point results are on record in a melting point compilation (Tetko et al.).

For the data set the following is noted: a range is the spread between reports.

The melting point is the temperature, or range, at which the solid turns liquid. `CCOP(=S)(OCC)Oc1nc(Cl)c(Cl)cc1Cl` came in with a melting point of 41.5 to 42.5 °C.

Molecule `Oc1ccc2c(c1)[nH]c1ccccc12` returned a melting point of 272 °C.

Take `O=C(O)C=Cc1ccc(Cl)cc1`: the melting point fell in the range of 248 to 249 °C.

`NC(=O)c1cccc([N+](=O)[O-])c1` showed a melting point of 142 to 143 °C. Consider `CC(=O)Oc1ccc(-c2ccc(OC(C)=O)cc2)cc1`, for which the melting point lay within 161 to 164 °C. In turn, `Cc1cccs1` yielded a melting point of -63.4 to -63 °C. The figure for `CCC(=O)c1ccc(C)cc1` is 7 to 7.2 °C; for `O=C(O)Cc1cccc(O)c1` it is 130 to 132 °C. The result for `CN(C)C(=O)Nc1ccc(Cl)cc1` reads 170 to 174 °C. The molecule `CC1=CCCCC1` displayed a melting point of -120 °C. The result for `CC(C)C(N)=O` reads 128 to 129 °C; that for `Clc1ccc(Cl)c(Br)c1`, 34 to 35 °C; that for `ClC(Cl)Br`, -57 to -55 °C. The figure for `COc1cc(OC)c(C(=O)O)cc1OC` is 144 to 145 °C; for `O=C(O)c1ccccc1[N+](=O)[O-]` it is 146 to 148 °C. `C=CCN` had a melting point of -88.2 to -88 °C. The figure for `O=C(c1ccccc1)c1ccc(C(F)(F)F)cc1` is 115 to 118 °C; for `CC(=O)c1ccc([N+](=O)[O-])cc1` it is 79 to 81.8 °C. Molecule `Fc1ccccc1-c1ccccc1` returned a melting point of 73.5 to 74 °C. The figure for `CCOC(=O)c1ccccn1` is 1 to 2 °C.

On to `O=P(O)(O)c1ccccc1`, for which the melting point lay in the range of 161 to 164 °C. The figure for `CCCCCC(C)C` is -109 to -105 °C; for `COc1cccc(OC)c1C` it is 39 to 40 °C; for `c1ccc(N=C(Nc2ccccc2)Nc2ccccc2)cc1` it is 144 to 146 °C.

`CN` gave a melting point of -93.4 to -93 °C. Take `Oc1ccccc1C(F)(F)F`: the melting point was 45.5 to 46 °C.

With `COC(=O)c1ccc(OC)c(OC)c1`, the melting point fell in the range of 59 to 60.8 °C. `CC(=O)c1cc(C)ccc1O`: the melting point fell in the range of 47 to 50 °C.

`CN(C)c1cccc([N+](=O)[O-])c1` returned a melting point of 59 to 60.5 °C. The result for `O=C(O)c1cccnc1` reads 237 to 238 °C.

Turning to `CC1(C)C2CC[C@@]1(C)C(=O)C2`, the melting point was 178 to 180 °C. The figure for `CCCI` is -101 °C. `Cc1c(O)cccc1O`: the melting point was 118 to 120 °C. For `c1ccc(CN(Cc2ccccc2)Cc2ccccc2)cc1`, the melting point was in the range of 91.5 to 93 °C.

With `COC(=O)C(Cl)(Cl)Cl`, the melting point is -18 to -17.5 °C. The result for `CNC(=O)c1ccccc1` reads 79 to 82 °C; that for `O=C1CSC(=O)N1`, 125 to 128 °C. With `C=CCCCCCCCCCCCC`, the melting point is -13 to -12 °C. `CC(CO)(CO)[N+](=O)[O-]` displayed a melting point of 150 °C. The figure for `C=C(C)C(C)CC` (centres undefined) is -134 °C; for `O=C(Oc1ccccc1)c1ccccc1C(=O)Oc1ccccc1` it is 73 to 75 °C. The result for `CCOC(=O)C(NC=O)C(=O)OCC` reads 48.5 to 53 °C; that for `CCOP(=O)(OCC)OCC`, -56.4 to -56 °C; that for `Nc1cccc([N+](=O)[O-])c1`, 112 to 114 °C. The figure for `O=C(O)c1cccc(C(F)(F)F)c1` is 105 to 106 °C; for `c1ccc2nc3ccccc3cc2c1` it is 108 to 109 °C. In turn, `c1ccc([Si](c2ccccc2)(c2ccccc2)c2ccccc2)cc1` gave a melting point of 236 to 237 °C. Molecule `C=CCC` registered a melting point of -185 °C. The figure for `S=C=S` is -112 °C; for `c1ccc2c(c1)Cc1ccccc1-2` it is 112 to 116 °C.

`N#Cc1ccc(I)cc1` registered a melting point of 125 to 126 °C. The result for `CCCCCCCCCCCC` reads -10 to -9.6 °C. With `O=C(O)CCCC(=O)c1ccccc1`, the melting point is 127 °C. `CC(=O)NC12CC3CC(CC(C3)C1)C2` displayed a melting point of 148 °C. As for `CCNC(=O)NCC`, the melting point was 110 to 112 °C. The figure for `COC(=O)CCC(=O)OC` is 19 to 19.5 °C; for `O=C(O)c1cc([N+](=O)[O-])cc([N+](=O)[O-])c1O` it is 170 to 171 °C; for `Cc1cnc2ccccc2c1` it is 15 to 16.5 °C. The result for `OCCSSCCO` reads 25 to 26 °C; that for `CCOC(=O)/C=C/C(=O)OCC`, 0 to 2 °C; that for `CC1CCC(=O)CC1`, -41 to -40.6 °C. The result for `CCCCCCC(C)=O` reads -21 to -16 °C; that for `C1=CCCC1`, -135 °C. Molecule `c1ccc(CSCc2ccccc2)cc1` showed a melting point of 49 to 49.5 °C. The figure for `CC=C(C)CC` is -138 to -135 °C; for `C(=Nc1ccccc1)Nc1ccccc1` it is 138 to 142 °C. The result for `Cc1cccc(C)c1I` reads 11 to 11.2 °C; that for `CCCCCI`, -86 to -85.6 °C; that for `CCOC(=O)C#CC(=O)OCC`, 1.5 to 2 °C. In the case of `C=CCc1ccccc1OCC(O)CNC(C)C` (centres undefined), the melting point was in the range of 108 to 109 °C.

Take `Brc1ccc(Oc2ccc(Br)cc2)cc1`: the melting point lay in the range of 58 to 60.5 °C. The figure for `c1ccc2n[nH]nc2c1` is 97 °C; for `O=[N+]([O-])c1ccccc1SSc1ccccc1[N+](=O)[O-]` it is 194 to 196 °C; for `ON=C1CCCC1` it is 56 to 57.8 °C. `NNC(=O)c1ccc(N)cc1` came in with a melting point of 226 to 228 °C.

Turning to `FC(F)(F)C(F)(F)F`, the melting point is -101 to -100 °C. Turning to `O=C1c2ccccc2C(=O)c2c(O)ccc(O)c21`, the melting point lay in the range of 197 to 200 °C. With `O=C(C=NO)c1ccccc1`, the melting point fell in the range of 127 to 129 °C. In turn, `O=C1C(O)=C(Cl)C(=O)C(O)=C1Cl` had a melting point of 283 to 284 °C.

In the case of `c1ccc2nccnc2c1`, the melting point lay in the range of 28 to 30 °C. Molecule `CS(C)(=O)=O` registered a melting point of 109 to 110 °C. In turn, `NC(=O)CI` came in with a melting point of 93.5 to 94.5 °C. As for `O=C(Oc1cccc(OC(=O)c2ccccc2)c1)c1ccccc1`, the melting point was in the range of 116 to 118 °C. The figure for `C=CCCCCC` is -120 to -119 °C.

`CC(=O)Nc1ccc(C#N)cc1` had a melting point of 205 to 207 °C.

In turn, `O=[N+]([O-])c1ccccc1Br` came in with a melting point of 42 to 43 °C. The molecule `N#Cc1ccc(C(N)=O)cc1` registered a melting point of 224 to 227 °C. The figure for `Oc1ccccc1I` is 38.5 to 43 °C.

The molecule `c1ccc(-c2cc3ccccc3[nH]2)cc1` displayed a melting point of 190 °C. With `COc1cc(C)ccc1O`, the melting point lay within 5.5 to 6 °C. The result for `Cc1ccc(C)c(O)c1` reads 74 to 76 °C; that for `COc1ccc(CC#N)cc1OC`, 62.8 to 64 °C. For the molecule `Clc1cccc(Cl)c1`, the melting point is -25 to -24.8 °C. In the case of `Nc1ccc(C(=O)NCC(=O)O)cc1`, the melting point is 198 to 200 °C. As for `NCCN1CCOCC1`, the melting point was in the range of 24 to 25.6 °C.

Consider `Nc1ccc([N+](=O)[O-])cn1`, for which the melting point was in the range of 187 to 188 °C.

`CCCc1ccc(C(=O)O)cc1` showed a melting point of 142 to 143 °C. The figure for `Cc1cc(C2(c3ccc(O)c(C)c3)OC(=O)c3ccccc32)ccc1O` is 223 to 224 °C; for `CCCc1ccc(C)cc1` it is -64 to -63.6 °C.
